Results on two molecules are retold here after US20210220331A1, “INHIBITORS OF IRES-MEDIATED PROTEIN SYNTHESIS” (The Regents of the University of California, priority 2016, published 2021).

The structures appear in SMILES notation. Read-outs that look alike come from different tables or passages of the source.

Series [1] has as its system LN229, LN18, LN428 and SF763 GBM lines. The experiment in a line: Cell-cycle phase distribution and Annexin V apoptosis in four GBM lines. It counts as cell-based. The protocol:
Results are expressed as relative fold change in firefly (FF) luciferase activity and the mean and +S.D. are shown for three independent experiments. […] Data represent mean±S.D. of three independent experiments. […] Control cell were treated with DMSO vehicle. Data are means±S.D., n=3. […] Percent apoptotic cells as determined via Annexin V staining are also shown below each graph.

Series [2] has as its target T1, UP1 fragment of hnRNP A1 / cyclin D1 or c-MYC IRES RNAs (Homo sapiens, UniProt P09651).
T1 construct: The UP1 fragment (a.a. 1-196) containing RRM1 and RRM2; made in house; host or cells: HEK293 cells
The series can be described thus: Filter binding assay of GST-tagged hnRNP A1 mutants with IRES RNAs. To be noted: for association of UP1 fragment (a.a. 1-196) with cyclin D1 or c-MYC IRESs: GST-tagged protein. The procedure:
Filter binding assays were performed as previously described (18,23). GSTtagged hnRNP A1 or hnRNP A1 deletion mutants were added to in vitro transcribed 32Plabeled RNAs corresponding to either the cyclin D1 or c-MYC IRESs in separate reactions in a volume of 10 μl in buffer containing 5 mM HEPES (pH 7.6), 30 mM KCl, 2 mM MgCl2, 200 mM DTT, 4% glycerol and 10 ng yeast tRNA for 10 min at room temperature. 8 μl of each binding reaction was applied to nitrocellulose membranes on a slot blot apparatus (Minifold II, Schleicher & Schuell). Membranes were washed and dried, and signals quantified using a phosphorimager.
To begin to investigate the mechanism of action of C11 and IRES-J007, it was initially determined whether the UP1 fragment of hnRNP A1 was sufficient to recapitulate C11 or IRESJ007-mediated inhibition of IRES binding to this ITAF. The relative association between the mutant proteins and either the cyclin D1 or c-MYC IRESs was determined by filter binding assays in the absence or presence of the inhibitors (FIG. 4B). […] Additionally, a mutant encompassing residues 103-372, containing RRM2 bound both IRES sequences and binding was reduced in the presence of either of the inhibitors. […] The presence of RRM2 is necessary and appears to cooperate with RRM1 to mediate IRES binding that is sensitive to C11 or IRES-J007. Finally, UP1 is capable of IRES binding that is blocked by either C11 or the analog IRES-J007.
Mutant 1-196 constitutes the Up1 fragment of full-length human hnRNP A1. In the Δ130-158 mutant, the sequences encompassing RRM2 have been removed. (B) Binding of either cyclin D1 (top panel) or c-MYC (bottom panel) IRES RNAs to GST-tagged hnRNP A1 mutants in the absence or presence of C11 or IRES-J007 as assayed by filter binding. The mean and +SD are shown for three independent experiments.

In the next series the test system is human cyclin D1 IRES. The series can be described thus: Dicistronic IRES mRNA reporter assay (firefly luciferase), cyclin D1 IRES. It counts as cell-based. The conditions noted are these: 293T cells, 50 nM, 24 h.
For series [3], the system named is human c-myc IRES. The series can be described thus: Dicistronic IRES mRNA reporter assay (firefly luciferase), c-myc IRES. Type of series: cell-based. To be noted: 293T cells, 50 nM, 24 h.
Series [4] concerns human c-myc IRES. The description is as above. It counts as cell-based. The conditions noted are these: for c-myc (decrease): fold decrease in PP242-induced c-MYC IRES activity: LN229, relative to values obtained with parent compound C11. The protocol: Western blot and quantitative RT-PCR analyses were performed as previously described (19). For Western blotting, cells or tissues were lysed in RIPA (lysis) buffer containing protease inhibitor cocktail and phosSTOP phosphatase inhibitor cocktail (Roche) and extracts resolved by SDSPAGE. Proteins were transferred to PVDF membranes and incubated with the indicated antibodies. For IRES reporter assays, the indicated mRNA reporters were cotransfected into cells with pSVβ-galactosidase to normalize for transfection efficiency as described previously (16). Cells were harvested 18 h following transfection and Renilla, firefly and β-galactosidase activities determined using the Dual-Glo Luciferase and β-galactosidase assay systems (Promega).
(B) Schematic diagrams of the dicistronic constructs used in this study. Constructs used are pRF, pRCD1F, which contains the human cyclin D1 IRES, pRmycF, containing the human c-myc IRES, pRp27F, containing the human p27Kip1 IRES and pRECMVF, containing the IRES from encephalomyocarditis virus. (C) Relative Renilla and firefly luciferase activities obtained from LN229 GBM cells transfected with the indicated constructs in the absence or presence of the inhibitor C11. The mean and +SD are shown for three independent experiments. […] (D) RNA-pull down assays utilizing biotinylated cyclin D1 or c-MYC IRES RNAs. Cytoplasmic extracts of LN229 cells treated with C11 (50 nM) as indicated were incubated with biotinylated cyclin D1 or c-MYC IRES RNAs and precipitated with streptavidin-Sepharose beads. Input and bound fractions were analyzed by immunoblotting using hnRNP A1 antibodies. […] RT-PCR measurements were performed in quadruplicate and the mean and +S.D. are shown. […] (F) Top panel, LN229 cells were treated with C11 as indicated and RT-PCR splicing analysis for Max exon 5 performed as described in the Experimental Methods section. Middle panel, LN229 cells treated with C11 (50 nM) as indicated, were lysed and immunoprecipitated using either eIF-4E or control IgG antibodies. Bound CCND1 or c-MYC RNAs were detected via RT-PCR. The mean and +S.D. are shown for three independent experiments. Bottom panel, cyclin D1 and c-MYC protein levels from the indicated GBM cell lines in the absence or presence of C11 at 24 h following treatment. C11 specifically blocks c-Myc IRES-mediated translation initiation by disrupting the ITAF hnRNP A1-IRES interaction.
Several dicistronic IRES mRNA reporter constructs were utilized, shown in FIG. 1B, in which the indicated IRES sequences were inserted within the intercistronic region. LN229 cells transiently transfected with these constructs were assayed for Renilla and firefly luciferase activities, which are readouts of cap-dependent and IRES-mediated translation initiation, respectively (16). […]

Another series relates to cyclin D1 mRNA. The experiment in a line: Polysome analysis of xenografted LN229 tumors, cyclin D1 mRNA.
A further series in a line: Pharmacokinetics in mice. It counts as in vivo. The protocol: The pharmacokinetic properties of IRES-J007 in mice were determined. […] IRES-J007 was ˜50% bioavailable following oral delivery with a serum half-life of approximately 30 hours.

T1 sequence (P09651 1-196): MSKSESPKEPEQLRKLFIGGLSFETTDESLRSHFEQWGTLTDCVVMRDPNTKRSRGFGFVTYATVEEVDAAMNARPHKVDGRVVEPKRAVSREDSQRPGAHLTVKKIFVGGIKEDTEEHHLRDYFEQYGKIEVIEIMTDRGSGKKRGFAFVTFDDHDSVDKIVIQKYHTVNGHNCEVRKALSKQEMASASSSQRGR
Description for cyclin D1 mRNA: Cells were lysed in buffer containing 100 μg/ml cycloheximide at 4° C. Following removal of mitochondria and nuclei, supernatants were layered onto 15-50% sucrose gradients and centrifuged at 38,000 rpm for 2 h at 4° C. in an SW40 rotor (Beckman Instruments). Gradients were fractionated into 11 1-ml fractions using a density gradient fractionator (Brandel Instruments). The profiles of the gradients were monitored at 260 nm, and RNAs from individual fractions were pooled into a nonribosomal/monosomal pool and a polysomal pool. These RNAs (100 ng) were used in real time quantitative RT-PCR analysis for the indicated transcripts.
Tumor extracts were subjected to sucrose density gradient centrifugation, fractionated and pooled into nonribosomal, monosomal fraction (N, white bars) and a polysomal fraction (P, black bars). Purified RNAs were used in real-time qRT-PCR analysis to determine the distributions of cyclin D1, c-MYC and actin mRNAs across the gradients. […] Means and +S.D. values are shown for quadruplicate RT-PCR measurements. *, P<0.05.
Polysomes were separated via sucrose density gradient sedimentation and fractionated into heavy polysomal and nonribosomal/monosomal fractions.

`COc1ccc(CN2C(=O)C(Cl)=C(Cl)C2=O)c(OC)c1` [Compound C11, reference compound]: in series [1] (combined with PP242, four GBM lines), the “percentage of cells undergoing apoptosis” value is given as “further potentiated the percentage of cells undergoing apoptosis”. In addition, the G1 arrest result in series [1] (cotreatment with PP242, four GBM lines) is listed as “markedly stimulated G1 arrest”. Besides, the “association of UP1 fragment (a.a. 1-196) with cyclin D1 or c-MYC IRESs” value in series [2] is reported as “blocked association”. The “basal cyclin D1 IRES activity” value in the series with human cyclin D1 IRES is “reduced IRES activity”. The “basal c-MYC IRES activity” value with human c-myc IRES [3] is listed as “reduced IRES activity”. Moreover, in the series with human c-myc IRES [4], the “c-myc (decrease): fold decrease in PP242-induced c-MYC IRES activity” value is reported as 1.0 fold. Also, the “mTOR inhibitor-induced c-MYC IRES activity” value in the series with human c-myc IRES [4] (LN229 cells, cotreatment with rapamycin or PP242) was “significantly inhibited”. In addition, the “c-MYC IRES activity” value in the series with human c-myc IRES [4] (LN229 cells, inhibitor alone) is “significantly inhibited”.
For `COc1ccc(CN2C(=O)c3ccccc3C2=O)c(OC)c1` [IRES-J007, 2-((2,4-Dimethoxyphenyl)methyl)isoindoline-1,3-dione], the “ability to block UP1/IRES RNA interactions compared to C11” value in series [2] is “modest, yet significant increase”. Besides, the “association of UP1 fragment (a.a. 1-196) with cyclin D1 or c-MYC IRESs” value in series [2] is given as “blocked association”. For the same molecule, the “basal cyclin D1 IRES activity” value with human cyclin D1 IRES is listed as “reduced IRES activity”. Moreover, the “cyclin D1 mRNA translational efficiency” value with cyclin D1 mRNA (IRES-J007 monotherapy) is given as “significant reduction”. Besides, the “CCND1 mRNA polysomal” value with cyclin D1 mRNA (PP242 and IRES-J007 cotherapy) amounted to 5%. Moreover, the AUC in “Pharmacokinetics in mice” (mouse, plasma, 20 mg/kg, PO) came out at 759 µg·h/mL; in “Pharmacokinetics in mice” (mouse, plasma, IV) it was 1290 µg·h/mL. The Cmax in the series “Pharmacokinetics in mice” (mouse, plasma, 20 mg/kg, PO) is 17.2 µg/mL; in “Pharmacokinetics in mice” (mouse, plasma, IV), 284 µg/mL. Further, the Tmax in the series “Pharmacokinetics in mice” (mouse, plasma, 20 mg/kg, PO) was found to be 7.2 h; in “Pharmacokinetics in mice” (mouse, plasma, IV), 0.05 h. For the same molecule, the half-life is 27.4 h in “Pharmacokinetics in mice” (mouse, plasma, 20 mg/kg, PO, read-out: Half-life (T1/2 K10) (converted)); 13.6 h in “Pharmacokinetics in mice” (mouse, plasma, IV, read-out: Half-life (T1/2 b) (converted)); around 30 h in the series “Pharmacokinetics in mice” (mouse, serum, oral delivery 20 mg/kg, read-out: serum half-life (converted)). The clearance in “Pharmacokinetics in mice” (mouse, plasma, IV) was 152 mL/min/kg. The bioavailability was 100% in the series “Pharmacokinetics in mice” (mouse, plasma, iv, read-out: Relative Bioavailability); 40.1% in “Pharmacokinetics in mice” (mouse, plasma, po, 20 mg/kg, PO, calculated based on AUC, read-out: Relative Bioavailability); around 50% in the series “Pharmacokinetics in mice” (mouse, plasma, po, 20 mg/kg, oral gavage 20 mg/kg, read-out: bioavailability following oral delivery). In the series “Pharmacokinetics in mice” (single 20 mg/kg dose), the trough levels entry was “exceeded concentrations expected to block hnRNP A1 IRES activity”. In addition, the “basal c-MYC IRES activity” value in the series with human c-myc IRES [3] is recorded as “reduced IRES activity”. Moreover, the “c-myc (decrease): fold decrease in PP242-induced c-MYC IRES activity” value with human c-myc IRES [4] was 6.51 ± 0.07 fold.
